Where two headings read alike, the source gives them in different places. Non-standard residues stand in square brackets, D forms with d. Residues, ends and D or L forms follow the SMILES beside them. ξ: configuration not given here. *: point of attachment. Dolaproine = CO[C@@H]([C@@H]1CCCN1)[C@@H](C)C(=O)O; Dil = CC[C@H](C)[C@H](NC)[C@@H](CC(=O)O)OC; NH(4-aminobenzyl) = Nc1ccc(CN*)cc1; NMe2Val = CC(C)[C@@H](C(=O)*)N(C)C; β3hF = N[C@H](CC(=O)O)Cc1ccccc1; ξF = NC(Cc1ccccc1)C(=O)O
Assays:
[1] = tested on: human gastric cancer cell line NCI-N87; assay: Experimental example 1: NCI-N87 gastric cancer subcutaneous xenograft, tumor inhibition; assay type: in vivo, Balb/c-nu mice; details: D21 after administration; IV, BIW×3W; BT001021 and Immu-132 3 mg/kg, toxins T-030 and SN-38 equimolar to ADC
Procedure: Tumor-bearing mice (6 mice/group) with tumor volume of 100-200 mm^3 were randomly grouped (the number of groups was determined according to sample number). The administration volume was 10 ml/kg, and the administration route was tail intravenous injection. The mice were administered twice a week, and tumor diameter was measured with a vernier caliper, and tumor volume was calculated based on the following calculation formula: V=0.5 a×b^2, wherein a and b stand for the long diameter and short diameter of a tumor respectively. Animal deaths were observed and recorded every day.
The tumor growth inhibition rate TGI (%) was calculated from the following formula to evaluate tumor inhibitory effect of antibody drug conjugates:
Specifically, in the experimental examples 1 and 2, tumor-bearing mice models were constructed by subcutaneous xenograft of a human gastric cancer cell line NCI-N87 or a human triple negative breast cancer cell line HCC1806. After the tumor volume was about 100 mm^3, the mice were randomly grouped, and intravenously administered with BT001021 twice a week for a total of 6 times. Changes in tumor volume and animal body weight were measured twice a week to evaluate the efficacy (tumor inhibitory effect) of the antibody drug conjugate on tumor-bearing mice.
NCI-N87 cells were cultured in a 1640 culture medium containing 10% fetal bovine serum at 37° C. and 5% CO2. NCI-N87 cells in the exponential growth stage were collected, resuspended in PBS to a suitable concentration, and inoculated subcutaneously into female Balb/c-nu mice to construct gastric cancer models. When the mean tumor volume was about 90 mm^3, the mice were randomly grouped into a physiological saline group, a BT001021 (3 mg/kg, IV, BIW×3W) group, a positive drug Immu-132 (3 mg/kg, IV, BIW×3W) group, a T030 group and a SN38 group according to the tumor size, followed by tail intravenous injection of corresponding drugs twice a week for a total of 6 times. After administration, the tumor volume and body weight of the mice were observed and measured regularly.

[2] = tested on: MDA-MB-468 (Trop-2 positive cell lines); assay: In-vitro cell activity test (CCK8), MDA-MB-468; assay type: cell-based; details: Homo sapiens, 96 h; MDA-MB-468, 7500 cells/well, 4 days; read-out: EC50 (nM), killing effects of bioactive molecules on cells
Procedure: (§1) First, tumor cells MDA-MB-468 (Trop-2 positive cell lines) and HCC1806 (Trop-2 positive cell lines) were cultured. The bioactive molecules and ADC molecules disclosed in the disclosure were co-cultured with the tumor cells, then a CCK8 reagent (Dojindo Molecular Technologies, Inc., Cat: CK04, Lot:JJ744) was added. The activity of dehydrogenase in mitochondria was tested through readings (detection wave length was 450 nm) from a microplate reader (manufacturer: Molecular Devices, model: SpectraMax M2) so as to evaluate the inhibitory effect of ADC on cell proliferation.
(§2) In-vitro cell activity testing: bioactive molecules or ADCs were diluted (12 concentration gradients) with corresponding test media (containing 2% FBS). The tumor cells were trypsinized with trypsin by a conventional method, collected and counted, and then resuspended with corresponding test media (containing 2% FBS). Diluted bioactive molecules or ADCs were added to a 96-well plate, and then cells were added. 20 μL of the CCK8 reagent was added to each well and reacted for 4 h, and readings (detection wavelength was 450 nm) were taken from a microplate reader.

[3] = tested on: HCC1806 (Trop-2 positive cell lines); assay: In-vitro cell activity test (CCK8), HCC1806; assay type: cell-based; details: Homo sapiens, read-out: EC50 (nM), killing effects of bioactive molecules on cells
Procedure: as §1, §2

[4] = Experimental example 6: pharmacokinetics of BT001021 and T-030 in NCI-N87 tumor-bearing mice (T-030 in tumor and serum, LC-MS/MS); assay type: in vivo, Balb/c-nu mice; details: T-030 0.23 mg/kg, single dose; for Cmax / AUC(0-t) / MRT inf / half-life: iv, 0.23 mg/kg; for AUC(0-t): read-out: AUClast (h*ng/ml) of T-030; for MRT inf: read-out: MRTINF (h) of T-030; for half-life: read-out: T1/2 (h) of T-030 (converted)
Excerpt: Experimental example 6 was used to evaluate pharmacokinetics of antibody drug conjugates and bioactive molecules in vivo. Specifically, in the experiment, a tumor-bearing mice model was constructed by subcutaneous xenograft of a human gastric cancer cell line NCI-N87 to Balb/c-nu mice. After the tumor volume was 100-200 mm^3, the mice were randomly grouped, and intravenously administrated with a single dose of BT001021 and T-030. The concentration of the T-030 in tumor tissues and serum was determined to evaluate the pharmacokinetics in vivo of the antibody conjugate BT001021 and the bioactive molecule T-030 in the tumor-bearing mice.
Tumor-bearing mice (4 mice/group) with tumor volume of 100-200 mm^3 were randomly grouped (the number of groups was determined according to sample number), and the administration route was single tail intravenous injection.
NCI-N87 cells were cultured in a 1640 culture medium containing 10% heat-inactivated fetal bovine serum at 37° C. and 5% CO2. NCI—N87 cells in the exponential growth stage were collected, resuspended in PBS to a suitable concentration, and inoculated subcutaneously into Balb/c-nu mice to construct xenograft models of […]. When the mean tumor volume was about 100-200 mm^3, the mice were randomly grouped into a physiological saline group, a T-030 (0.23 mg/kg, IV, single dose) group and a BT001021 (10 mg/kg, IV, single dose) group according to the tumor size, followed by tail intravenous injection of corresponding drugs. For the T-030 group, serum and tumor tissues were collected 1 h, 2 h, 4 h, 8 h, 24 h and 72 h after administration (T-030 was not detected in the serum and tumor tissues 72 h after administration, therefore, serum and tumor tissues were not collected 168 h after administration). For BT001021 group, serum and tumor tissues were collected 1 h, 2 h, 4 h, 8 h, 24 h, 72 h and 168 h after administration to test the concentration of the T-030 in the serum and the tumors by LC-MS/MS. The administration dose of the T-030 (0.23 mg/kg) was converted to isomolar dose (10 mg/kg) of BT001021.

[5] = Balb/c-nu, mouse, in vivo, Serum
[6] = Balb/c-nu, mouse, in vivo, Tumor

SMILES: CCc1c2c(nc3ccc(O)cc13)-c1cc3c(c(=O)n1C2)COC(=O)[C@]3(O)CC [SN-38]
- Tumor Volume (mm^3) (x ± S) [1]: 416.11 ± 195.15 mm^3
- Tumor growth inhibition rate (%) [1]: −2.75%

SMILES: CC[C@H](C)[C@@H]([C@@H](CC(=O)N1CCC[C@H]1[C@H](OC)[C@@H](C)C(=O)NC(Cc1ccccc1)C(=O)NCc1ccc(N)cc1)OC)N(C)C(=O)[C@@H](NC(=O)[C@H](C(C)C)N(C)C)C(C)C (stereo partly drawn) [T001, (2S)—N-((3R,4S,5S)-1-((2S)-2-((1R,2R)-3-((1-((4-aminobenzyl)amino)-1-oxo-3-phenylpropan-2-yl)amino)-1-methoxy-2-methyl-3-propionyl)pyrrolidin-1-yl)-3-methoxy-5-methyl-1-heptanoyl-4-yl)-2-((S)-2-(dimethylamino)-3-methylbutyrylamino)-N,3-dimethylbutyramide] (NMe2Val-V[Dil][Dolaproine][ξF]-{NH(4-aminobenzyl)})
- EC50 [2]: 1.13 nM

SMILES: CC[C@H](C)[C@@H]([C@@H](CC(=O)N1CCC[C@H]1[C@H](OC)[C@@H](C)C(=O)N[C@@H](Cc1ccccc1)C(=O)NCc1ccc(N)cc1)OC)N(C)C(=O)[C@@H](NC(=O)[C@H](C(C)C)N(C)C)C(C)C [T011] (NMe2Val-V[Dil][Dolaproine]F-{NH(4-aminobenzyl)})
- EC50 [2]: 0.211 nM

SMILES: CC[C@H](C)[C@@H]([C@@H](CC(=O)N1CCC[C@H]1[C@H](OC)[C@@H](C)C(=O)N[C@H](Cc1ccccc1)C(=O)NCc1ccc(N)cc1)OC)N(C)C(=O)[C@@H](NC(=O)[C@H](C(C)C)N(C)C)C(C)C [T012] (NMe2Val-V[Dil][Dolaproine][dF]-{NH(4-aminobenzyl)})
- EC50 [2]: 1.62 nM

SMILES: CC[C@H](C)[C@@H]([C@@H](CC(=O)N1CCC[C@H]1[C@H](OC)[C@@H](C)C(=O)N[C@H](CC(=O)NCc1ccc(N)cc1)Cc1ccccc1)OC)N(C)C(=O)[C@@H](NC(=O)[C@H](C(C)C)N(C)C)C(C)C [T013] (NMe2Val-V[Dil][Dolaproine][β3hF]-{NH(4-aminobenzyl)})
- EC50 [2]: 0.414 nM

SMILES: CC[C@H](C)[C@@H]([C@@H](CC(=O)N1CCC[C@H]1[C@H](OC)[C@@H](C)C(=O)NCC(=O)NCc1ccc(N)cc1)OC)N(C)C(=O)[C@@H](NC(=O)[C@H](C(C)C)N(C)C)C(C)C [T015] (NMe2Val-V[Dil][Dolaproine]G-{NH(4-aminobenzyl)})
- EC50 [2]: 7.43 nM

SMILES: CC[C@@]1(O)C(=O)OCc2c1cc1n(c2=O)Cc2c-1nc1ccccc1c2CCN(C(C)=O)C(C)C [T-028, (S)—N-(2-(4-ethyl-4-hydroxyl-3,14-dione-3,4,12,14-tetrahydro-1H-pyrano [3′,4′,6,7]indolizino[1,2-b]quinolin-11-yl)ethyl)-N-isopropylacetamide]
- EC50 ([3]; HCC1806, 72 h): 6.02 nM

SMILES: CC[C@@]1(O)C(=O)OCc2c1cc1n(c2=O)Cc2c-1nc1ccccc1c2CCN(C(C)C)S(C)(=O)=O [T-030, (S)—N-(2-(4-ethyl-4-hydroxyl-3,14-dione-3,4,12,14-tetrahydro-1H-pyrano[3′,4′,6,7]indolizino[1,2-b]quinolin-11-yl)ethyl)-N-isopropylmethanesulfonamide]
- Tumor Volume (mm^3) (x ± S) [1]: 339.02 ± 152.80 mm^3
- Tumor growth inhibition rate (%) [1]: 21.48%
- T-030 in the serum and tumor tissues ([4]; 72 h after administration, IV): not detected
- Cmax [4, 5]: 1.81 ng/mL
- AUC(0-t) [4, 5]: 5.58 ng·h/mL
- MRT inf [4, 5]: 1.11 h
- half-life [4, 5]: 1.76 h
- Cmax [4, 6]: 1.2 ng/mL
- AUC(0-t) [4, 6]: 3.85 ng·h/mL
- MRT inf [4, 6]: 1.52 h
- half-life [4, 6]: 2.55 h
- Tmax ([4]; Balb/c-nu, mouse, in vivo, Tumor, IV): 1 h
- EC50 ([3]; 72 h, HCC1806, 7500 cells/well, 3 days): 6.73 nM
